Measurements from paper PMC8232238 (Cells, 2021).
Values joined by “and” are separate entries in the source; they are usually repeats but may differ in a detail not shown here. Identical values can stand only once. Like-named read-outs stand apart in the source and are kept apart here.

How the values were obtained:
HDAC3 = biological target: T1, HDAC3 (Homo sapiens, UniProt O15379); test: HDAC3 enzyme inhibition assay (single point and 10-dose IC50, Reaction Biology); format: biochemical; conditions: for IC50: average of two independent measurements; for HDAC3 average enzyme isoform activity (percentage of full enzyme activity): single point, inhibitor 1.0 μM, average of two measurements, ±2%
T1 construct: purchased Reaction Biology corporation (contract assay)
T1 sequence (O15379 whole entry, canonical isoform): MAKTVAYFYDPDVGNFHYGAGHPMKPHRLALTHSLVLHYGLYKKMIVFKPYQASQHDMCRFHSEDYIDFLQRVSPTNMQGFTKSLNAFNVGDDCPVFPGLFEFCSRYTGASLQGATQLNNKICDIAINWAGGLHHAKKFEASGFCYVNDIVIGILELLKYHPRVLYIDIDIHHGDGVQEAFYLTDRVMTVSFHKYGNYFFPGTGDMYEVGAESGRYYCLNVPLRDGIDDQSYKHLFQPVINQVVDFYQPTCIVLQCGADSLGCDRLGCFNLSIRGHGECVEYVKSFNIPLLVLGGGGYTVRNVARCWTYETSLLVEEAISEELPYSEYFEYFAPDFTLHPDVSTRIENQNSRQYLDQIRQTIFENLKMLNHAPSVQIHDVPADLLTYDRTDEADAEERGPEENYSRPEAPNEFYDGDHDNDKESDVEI
T1 sequence (Q9Y618 395-489 partner limits assumed): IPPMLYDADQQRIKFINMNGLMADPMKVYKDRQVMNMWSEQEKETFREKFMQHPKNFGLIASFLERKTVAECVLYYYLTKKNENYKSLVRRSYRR
Procedure: (§1) All IC50 measurements we performed by Reaction Biology corporation. Compounds were tested in
(§2) dilution starting at 1 uM. […]
(§3) (RHK(Ac)K(Ac)AMC). IC50 values were calculated using the GraphPad Prism 4 program based on a
(§4) sigmoidal dose-response equation. […]

HDAC6 = biological target: T2, HDAC6 (Homo sapiens, UniProt Q9UBN7); test: HDAC6 enzyme inhibition assay (single point and 10-dose IC50, Reaction Biology); format: biochemical; conditions: for IC50: average of two independent measurements; for HDAC6 average enzyme isoform activity (percentage of full enzyme activity): single point, inhibitor 0.01 μM, average of two measurements, ±2%
T2 construct: purchased Reaction Biology corporation (contract assay)
T2 sequence (Q9UBN7 1-1215): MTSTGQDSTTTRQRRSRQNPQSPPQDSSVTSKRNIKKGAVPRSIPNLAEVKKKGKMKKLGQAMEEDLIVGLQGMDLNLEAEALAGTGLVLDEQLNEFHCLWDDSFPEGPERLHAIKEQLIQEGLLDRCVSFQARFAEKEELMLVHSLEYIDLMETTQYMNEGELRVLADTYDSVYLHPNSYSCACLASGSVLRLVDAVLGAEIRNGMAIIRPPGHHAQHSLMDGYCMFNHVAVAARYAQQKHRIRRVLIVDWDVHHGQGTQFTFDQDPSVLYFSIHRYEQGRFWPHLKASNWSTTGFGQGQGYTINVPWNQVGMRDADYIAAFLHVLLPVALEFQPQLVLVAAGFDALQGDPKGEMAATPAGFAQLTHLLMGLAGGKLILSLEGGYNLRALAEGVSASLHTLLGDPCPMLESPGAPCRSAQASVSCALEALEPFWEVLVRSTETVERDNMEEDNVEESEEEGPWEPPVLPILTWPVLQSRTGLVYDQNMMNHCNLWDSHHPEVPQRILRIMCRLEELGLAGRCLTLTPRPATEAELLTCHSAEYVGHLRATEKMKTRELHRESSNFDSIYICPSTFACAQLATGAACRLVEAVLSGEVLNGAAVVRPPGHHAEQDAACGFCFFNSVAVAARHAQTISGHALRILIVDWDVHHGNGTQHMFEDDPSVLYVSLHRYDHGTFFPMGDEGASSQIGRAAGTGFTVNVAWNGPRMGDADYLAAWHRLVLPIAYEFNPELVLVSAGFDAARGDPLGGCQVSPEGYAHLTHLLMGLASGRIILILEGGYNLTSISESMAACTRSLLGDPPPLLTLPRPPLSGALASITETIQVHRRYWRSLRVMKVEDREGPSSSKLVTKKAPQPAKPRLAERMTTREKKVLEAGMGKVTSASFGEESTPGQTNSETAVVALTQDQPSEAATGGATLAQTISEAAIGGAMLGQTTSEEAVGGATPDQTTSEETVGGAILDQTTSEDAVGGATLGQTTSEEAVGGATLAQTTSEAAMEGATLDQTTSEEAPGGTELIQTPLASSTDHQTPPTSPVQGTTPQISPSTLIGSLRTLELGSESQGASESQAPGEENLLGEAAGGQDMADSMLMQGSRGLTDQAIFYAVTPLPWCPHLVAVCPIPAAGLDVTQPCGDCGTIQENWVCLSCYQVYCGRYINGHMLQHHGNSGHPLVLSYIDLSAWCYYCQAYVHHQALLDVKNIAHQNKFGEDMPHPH
Procedure: (§5) Against HDAC6, inhibition was determined using 0.01 µM of the inhibitor.
as §1, §2, §3, §4

HDAC11 = biological target: T3, HDAC11 (Homo sapiens, UniProt Q96DB2); test: HDAC11 enzyme inhibition assay (single point and 10-dose IC50, Reaction Biology); format: biochemical; conditions: for IC50: average of two independent measurements; for Selectivity factor (SF) HDAC11 against HDAC6: selectivity for HDAC6 over HDAC11; for HDAC11 average enzyme isoform activity (percentage of full enzyme activity): single point, inhibitor 1.0 μM, average of two measurements, ±2%
T3 construct: purchased Reaction Biology corporation (contract assay)
T3 sequence (Q96DB2 1-347): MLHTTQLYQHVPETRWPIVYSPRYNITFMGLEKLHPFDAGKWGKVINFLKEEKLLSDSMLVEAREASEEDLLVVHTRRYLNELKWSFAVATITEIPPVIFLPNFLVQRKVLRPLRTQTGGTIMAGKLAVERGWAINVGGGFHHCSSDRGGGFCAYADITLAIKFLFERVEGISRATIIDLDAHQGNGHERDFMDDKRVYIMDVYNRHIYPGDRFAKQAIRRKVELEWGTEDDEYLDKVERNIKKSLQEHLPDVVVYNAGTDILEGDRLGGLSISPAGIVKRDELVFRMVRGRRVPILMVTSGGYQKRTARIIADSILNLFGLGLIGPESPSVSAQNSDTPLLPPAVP
Procedure: as §5
All IC50 measurements we performed by Reaction Biology corporation. Compounds were tested in […]
dilution starting at 1 uM.
Substrate for HDAC11: 50 uM Fluorogenic HDAC Class2a Substrate […]
(Trifluoroacetyl Lysine).
(RHK(Ac)K(Ac)AMC). IC50 values were calculated using the GraphPad Prism 4 program based on a sigmoidal dose-response equation. […]

[1] = UV/Vis absorption and fluorescence (photophysical properties) in DMSO; format: physicochemical; conditions: for λem: excitation at 340 nm; for Φf (fluorescence quantum yield): relative to quinine sulfate, average of two samples
Procedure: S1.6 UV/Vis and Fluorescence Data
UV/Vis analysis was performed on a Cary Eclipse 300 UV/Vis spectrophotometer and fluorescence measurements performed on a Cary Eclipse Fluorescence spectrophotometer. All analysis was performed in 10 mm quartz cuvettes using AR grade DMSO. Relative quantum yields were obtained by comparison to quinine sulfate (фf = 0.58 in 0.1 M H2SO4) with absorbance of samples adjusted so that the absorbance at 340 nm was similar to the reference.
Emission spectra were obtained by excitation at 340 nm. Quantum yield was obtained by use of the following equation and are reported as the average of two samples with error <5%; […]
Where фref is the literature quantum yield of the reference, η is the refractive index of the solvent (H2O = 1.333, DMSO = 1.479) and Is is the integrated fluorescence intensity of the sample with Iref being the same of the reference.
Table S1 – Photophysical properties of selected compounds in DMSO […]
†Average of two samples, ±1%

HDAC8 = biological target: T4, HDAC8 (Homo sapiens, UniProt Q9BY41); test: HDAC8 enzyme inhibition assay (single point and 10-dose IC50, Reaction Biology); format: biochemical; conditions: for IC50: average of two independent measurements; for Selectivity factor (SF) HDAC8 against HDAC6: selectivity for HDAC6 over HDAC8
T4 construct: purchased Reaction Biology corporation (contract assay)
T4 sequence (Q9BY41 1-377): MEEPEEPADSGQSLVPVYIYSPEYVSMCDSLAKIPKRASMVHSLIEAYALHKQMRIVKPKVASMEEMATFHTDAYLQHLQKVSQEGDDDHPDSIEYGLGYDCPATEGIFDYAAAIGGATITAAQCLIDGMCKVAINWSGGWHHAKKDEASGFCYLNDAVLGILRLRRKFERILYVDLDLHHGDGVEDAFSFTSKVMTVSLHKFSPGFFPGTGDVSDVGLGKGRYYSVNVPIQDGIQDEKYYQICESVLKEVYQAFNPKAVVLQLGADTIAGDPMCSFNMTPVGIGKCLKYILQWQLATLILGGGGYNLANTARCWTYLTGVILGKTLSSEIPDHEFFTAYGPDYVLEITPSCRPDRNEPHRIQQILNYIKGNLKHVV
Procedure: as §5, §1, §2, §3, §4

HDAC1 = biological target: T5, HDAC1 (Homo sapiens, UniProt Q13547); test: HDAC1 enzyme inhibition assay (single point and 10-dose IC50, Reaction Biology); format: biochemical; conditions: for IC50: average of two independent measurements; for Selectivity factor (SF) = HDAC1 IC50/HDAC6 IC50: selectivity for HDAC6 over HDAC1; for HDAC1 average enzyme isoform activity (percentage of full enzyme activity): single point, inhibitor 1.0 μM, average of two measurements, ±2%
T5 construct: purchased Reaction Biology corporation (contract assay)
T5 sequence (Q13547 whole entry, canonical isoform): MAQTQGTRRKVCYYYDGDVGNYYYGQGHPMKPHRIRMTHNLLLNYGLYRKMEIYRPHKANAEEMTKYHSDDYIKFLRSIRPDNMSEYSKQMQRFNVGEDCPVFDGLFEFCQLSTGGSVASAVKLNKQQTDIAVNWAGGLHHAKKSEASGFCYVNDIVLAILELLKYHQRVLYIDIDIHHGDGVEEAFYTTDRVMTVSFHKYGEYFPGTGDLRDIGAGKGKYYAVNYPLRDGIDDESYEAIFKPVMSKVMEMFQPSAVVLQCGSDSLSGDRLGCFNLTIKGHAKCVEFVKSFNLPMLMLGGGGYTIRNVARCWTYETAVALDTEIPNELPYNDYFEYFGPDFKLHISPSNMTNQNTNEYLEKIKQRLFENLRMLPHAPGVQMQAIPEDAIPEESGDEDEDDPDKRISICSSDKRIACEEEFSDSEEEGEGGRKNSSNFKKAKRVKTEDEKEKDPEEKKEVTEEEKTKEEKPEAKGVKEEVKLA
Procedure: as §1, §2, §3, §4

[2] = single point, inhibitor 1.0 μM, average of two measurements, ±2%

SMILES | IC50 (HDAC3) [nM] | HDAC3 average enzyme isoform activity (percentage of full enzyme activity) (HDAC3) [%] | IC50 (HDAC6) [nM] | HDAC6 average enzyme isoform activity (percentage of full enzyme activity) (HDAC6) [%] | IC50 (HDAC11) [nM] | Selectivity factor (SF) HDAC11 against HDAC6 (HDAC11) | HDAC11 average enzyme isoform activity (percentage of full enzyme activity) (HDAC11) [%] | λabs (absorption maximum) [1] [nm] | λabs (secondary absorption maximum) [1] | λem [1] [nm] | Φf (fluorescence quantum yield) [1] | IC50 (HDAC8) [nM] | Selectivity factor (SF) HDAC8 against HDAC6 (HDAC8) | HDAC8 average enzyme isoform activity (percentage of full enzyme activity) (HDAC8; [2]) [%] | IC50 (HDAC1) [nM] | Selectivity factor (SF) = HDAC1 IC50/HDAC6 IC50 (HDAC1) | HDAC1 average enzyme isoform activity (percentage of full enzyme activity) (HDAC1) [%] | Selectivity factor (SF) HDAC3 against HDAC6 (HDAC3; selectivity for HDAC6 over HDAC3) | HDAC8 average enzyme isoform activity (percentage of full enzyme activity) (HDAC8) [%]
CCC(=O)Nc1cc2c3c(cccc3c1)C(=O)N(CCCCCC(=O)NO)C2=O [KNH021] | 32 ± 1 | 20.1 | 0.97 ± 0.05 | 20.3 | 2160 ± 140 | 2234 | 90.7 | 341 | 383 nm | 435 | 0.04 | 950 ± 50 | 981 | 50.4 | 37 ± 2 | 38 | 29.8 |  | 
COCCN1C(=O)c2cccc3cc(NC(=O)OC(C)(C)C)cc(c23)C1=O [Compound 9] |  |  |  |  |  |  |  | 345 | 367 nm | 442 | 0.06 |  |  |  |  |  |  |  | 
COCCN1C(=O)c2cccc3cc(N4CCCC4=O)cc(c23)C1=O [Compound 8] |  |  |  |  |  |  |  | 343 | 383 nm | 441 | 0.02 |  |  |  |  |  |  |  | 
CCC(=O)Nc1cc2c3c(cccc3c1)C(=O)N(CCOC)C2=O [Compound 7] |  |  |  |  |  |  |  | 341 | 383 nm | 439 | 0.04 |  |  |  |  |  |  |  | 
COc1ccc(C(=O)Nc2cc3c4c(cccc4c2)C(=O)N(CCCCCC(=O)NO)C3=O)cc1 [KNH020] | 27 ± 3 | 17.2 | 0.58 ± 0.002 | 19.7 | 240 ± 11 | 413 | 58.7 | 343 | 386 nm and 374 nm | 437 | 0.05 | 4330 ± 390 | 7466 | 93.4 | 87 ± 7 | 150 | 38.7 | 47 | 
O=C(CCCCCN1C(=O)c2cccc3cccc(c23)C1=O)NO [scriptaid, reference compound] |  |  |  |  |  |  |  |  |  |  |  |  |  |  |  |  |  |  | 60.3
COCCN1C(=O)c2cccc3cc(NC(=O)c4ccccc4)cc(c23)C1=O [Compound 6] |  |  |  |  |  |  |  | 344 | 385 nm | 435 | 0.02 |  |  |  |  |  |  |  | 
